These are literature values, as cited in patent publication US12186420B2, “Compositions and methods of use for treatment or improvement of the condition and appearance of skin” (Quthero, Inc., priority 2020, dated 2025).

This data set relates to keratinocyte. To be noted: in the presence of reactive oxygen species.

Regarding “QHREDGS [angiopoietin-1 derived peptide]”, the keratinocyte death entry is given as “reduce keratinocyte death”.
